From ChEMBL document CHEMBL4190365, “Synthesis and antiproliferative properties of new hydrophilic esters of triterpenic acids” (Eur J Med Chem, 2017)

Columns and labels:
Type in all cases: functional, cell-based
CCRF-CEM = assay: Cytotoxicity in human CEM cells assessed as reduction in cell viability incubated for 72 hrs by calcein AM cytotoxicity assay
MCF7 = assay: Cytotoxicity in human MCF7 cells assessed as reduction in cell viability incubated for 72 hrs by calcein AM cytotoxicity assay
HeLa = assay: Cytotoxicity in human HeLa cells assessed as reduction in cell viability incubated for 72 hrs by calcein AM cytotoxicity assay
G-361 = assay: Cytotoxicity in human G361 cells assessed as reduction in cell viability incubated for 72 hrs by calcein AM cytotoxicity assay
BJ = assay: Cytotoxicity in human BJ cells assessed as reduction in cell viability incubated for 72 hrs by calcein AM cytotoxicity assay

SMILES	IC50 (CCRF-CEM; ccrf-cem)	IC50 (MCF7; Homo sapiens, MCF7, 72 h)	IC50 (HeLa; Homo sapiens, HeLa, 72 h)	IC50 (G-361; Homo sapiens, G-361, 72 h)	IC50 (BJ; Homo sapiens, BJ, 72 h)	IC50 (CCRF-CEM; Homo sapiens, CCRF-CEM, 72 h)	IC50 (MCF7; mcf7)	IC50 (HeLa; hela)	IC50 (G-361; g-361)	IC50 (BJ; bj)
C=C(C)[C@@H]1CC[C@]2(C(=O)OCCN3CCCC3)CC[C@]3(C)[C@H](CC[C@@H]4[C@@]5(C)CC[C@H](O)C(C)(C)[C@@H]5CC[C@]43C)[C@@H]12	5 µM	19.9 µM	8.5 µM	11.6 µM	23.1 µM	–	–	–	–	–
COCCOC(=O)[C@]12CC[C@@H](C(C)C)[C@@H]1[C@H]1CC[C@@H]3[C@@]4(C)CC[C@H](O)C(C)(C)[C@@H]4CC[C@@]3(C)[C@]1(C)CC2	–	44.4 µM	21.5 µM	38.6 µM	26.5 µM	38.4 µM	–	–	–	–
CC(=O)OC[C@@]1(C(=O)OCC(=O)OCc2ccccc2)CC[C@]2(C)[C@H](CC[C@@H]3[C@@]4(C)CC[C@H](OC(C)=O)C(C)(C)[C@@H]4CC[C@]32C)C1=O	–	> 50 µM	> 50 µM	> 50 µM	> 50 µM	> 50 µM	–	–	–	–
CC(C)[C@@H]1CC[C@]2(C(=O)OCC(=O)O)CC[C@]3(C)[C@H](CC[C@@H]4[C@@]5(C)CC[C@H](O)C(C)(C)[C@@H]5CC[C@]43C)[C@@H]12	–	> 50 µM	> 50 µM	> 50 µM	> 50 µM	> 50 µM	–	–	–	–
C=C(C)[C@@H]1CC[C@]2(C(=O)OCCN3CCCCC3)CC[C@]3(C)[C@H](CC[C@@H]4[C@@]5(C)CC[C@H](O)C(C)(C)[C@@H]5CC[C@]43C)[C@@H]12	–	–	–	–	–	21.5 µM	33.5 µM	24.7 µM	33.8 µM	45.9 µM
CC(C)[C@@H]1CC[C@]2(C(=O)OCCN3CCCCC3)CC[C@]3(C)[C@H](CC[C@@H]4[C@@]5(C)CC[C@H](O)C(C)(C)[C@@H]5CC[C@]43C)[C@@H]12	19.6 µM	31.8 µM	26.7 µM	32.2 µM	45.1 µM	–	–	–	–	–
CC(=O)O[C@H]1CC[C@]2(C)[C@H]3CC[C@@H]4C5=C(C(C)C)C(=O)C[C@]5(C(=O)OCCN5CCCC5)CC[C@@]4(C)[C@]3(C)CC[C@H]2C1(C)C	–	7.3 µM	7.7 µM	6.5 µM	19.1 µM	13.3 µM	–	–	–	–
CC(=O)OC[C@@]1(C(=O)OCCBr)CC[C@]2(C)[C@H](CC[C@@H]3[C@@]4(C)CC[C@H](OC(C)=O)C(C)(C)[C@@H]4CC[C@]32C)C1=O	–	> 50 µM	> 50 µM	> 50 µM	> 50 µM	> 50 µM	–	–	–	–
CC(=O)OC[C@@]1(C(=O)OCCN2CCCC2)CC[C@]2(C)[C@H](CC[C@@H]3[C@@]4(C)CC[C@H](OC(C)=O)C(C)(C)[C@@H]4CC[C@]32C)[C@@H]1O	–	10 µM	10.6 µM	7.4 µM	14.1 µM	8.3 µM	–	–	–	–
C=C(C)[C@@H]1CC[C@]2(C(=O)OCC(=O)OCc3ccccc3)CC[C@]3(C)[C@H](CC[C@@H]4[C@@]5(C)CC[C@H](O)C(C)(C)[C@@H]5CC[C@]43C)[C@@H]12	–	> 50 µM	> 50 µM	22.2 µM	> 50 µM	21.9 µM	–	–	–	–
CC(=O)O[C@H]1CC[C@]2(C)[C@H]3CC[C@@H]4C5=C(C(C)C)C(=O)C[C@]5(C(=O)OCCN5CCOCC5)CC[C@@]4(C)[C@]3(C)CC[C@H]2C1(C)C	–	14.5 µM	16.1 µM	7 µM	42.5 µM	12.6 µM	–	–	–	–
CC(C)[C@@H]1CC[C@]2(C(=O)OCC(=O)OCc3ccccc3)CC[C@]3(C)[C@H](CC[C@@H]4[C@@]5(C)CC[C@H](O)C(C)(C)[C@@H]5CC[C@]43C)[C@@H]12	–	> 50 µM	> 50 µM	> 50 µM	> 50 µM	24.1 µM	–	–	–	–
CC(=O)OC[C@@]1(C(=O)OCCN2CCCC2)CC[C@]2(C)[C@H](CC[C@@H]3[C@@]4(C)CC[C@H](OC(C)=O)C(C)(C)[C@@H]4CC[C@]32C)C1=O	–	> 50 µM	> 50 µM	20.3 µM	> 50 µM	25.8 µM	–	–	–	–
